Test results published in patent publication EP4119135A1, “METHODS FOR REBALANCING THE INTESTINAL FLORA IN PATIENTS SUFFERING FROM PARKINSON'S DISEASE” (Luxia Scientific, priority 2021, dated 2023).
Several values for one entry are separate records, joined by “and”; a condition that tells them apart may be missing. Identical values can stand only once. Entries after “also recorded” stand apart in the source; their conditions may differ.

Assays:
Blautia = test: Spearman correlation between estimated daily nutrient intake (food questionnaire) and relative abundance of the bacterial genus (16S sequencing of faecal samples); conditions: nutrient intake vs relative abundance of Blautia, whole cohort (215 individus)
Source text: (§1) Les tests statistiques suivants ont été réalisés : • Corrélations non paramétriques de Spearman entre les apports en nutriments calculés et chacune des cinq bactéries d'intérêt. • Corrélations non paramétriques de Spearman entre les fréquences de consommation des aliments du questionnaire alimentaire et chacune des cinq bactéries d'intérêt. • Régressions ordinales entre les fréquences de consommation des aliments du questionnaire alimentaire et chacune des cinq bactéries d'intérêt.
(§2) Après avoir créé leur compte personnel sur le site internet de la société de Luxia Scientific, les clients peuvent remplir de manière volontaire un questionnaire alimentaire. Ce questionnaire possède neuf sous-groupes de questions, chacun constituant une catégorie d'aliments. À l'intérieur de ces sous-groupes, une liste complète d'aliments est fournie et donne aux personnes la possibilité de choisir la fréquence à laquelle elles ont consommé chaque aliment possible au cours du dernier mois dans une portion spécifiée.
(§3) Un tableau des apports nutritionnels par portion d'aliments présents dans le questionnaire a été ensuite créé. Pour créer ce tableau, la Table de composition alimentaire française Ciqual de l'ANSES du 07/07/2020 (https://ciqual.anses.fr/) a été utilisée.
(§4) L'apport en omégas-3 a été calculé en additionnant les valeurs d'apports en acide alpha-linolénique (18:3; ALA), en acide eïcosapentaénoïque (20:5; EPA) et en acide docosahexaénoïque (22:6; DHA). L'apport en omégas-6 a été calculé en additionnant les valeurs d'apports en acide linoléique (18:2; […]) et en acide arachidonique (20:4; ARA) qui sont les deux présents dans la Table Ciqual.
(§5) À cette étape, on possède d'une part les réponses des utilisateurs volontaires pour répondre au questionnaire alimentaire, et, d'autre part, on possède les apports nutritionnels mensuel pour chaque réponse possible de chaque aliment du questionnaire. Il convient ensuite de calculer la somme de tous les apports pour chaque réponse de l'individu au questionnaire, puis de la diviser par 30 pour obtenir l'apport nutritionnel quotidien moyen estimé pour cet individu.
(§6) On obtient ainsi un document décrivant les apports nutritionnels de 70 nutriments chez 288 individus.
(§7) Ces deux fichiers sont ainsi composés au final des données alimentaires de 288 individus. Au début de l'analyse, ont été supprimées les données de 2 individus qui sont des enfants de moins de 4 ans car à cet âge, leur microbiote est encore trop immature pour être représentatif des effets de l'alimentation sur leurs populations bactériennes. On utilise donc les données alimentaires de 286 individus pour les analyses de ce rapport.
(§8) Les résultats ayant servi à l'analyse du microbiote intestinal ont été générés en suivant le processus d'analyse du Dispositif Médical de Diagnostic In Vitro 1test1. En bref, les échantillons fécaux ont été prélevés avec un tube de collecte contenant un conservant afin de permettre le transport à température non controlée depuis l'utilisateur vers le laboratoire d'analyse (DNA/RNA Shield de Zymo Research). L'ADN a ensuite été extrait et le séquençage de la région v3-v4 ARN16s réalisé par le laboratoire IBBL au Luxembourg sur un séquenceur MiSeq d'Illumina selon le protocol en application (peut-être rajouter une référence publication). […]

Clostridium_XVIII = test: as above; conditions: nutrient intake vs relative abundance of Clostridium_XVIII, whole cohort (215 individus)
Source text: as §1, §2, §3, §4, §5, §6, §7, §8

Faecalibacterium = test: as above; conditions: nutrient intake vs relative abundance of Faecalibacterium, whole cohort (215 individus)
Source text: as §1, §2, §3, §4, §5, §6, §7, §8

microbiote intestinal = test: Short-term colonic incubations (in vitro faecal fermentation, simplified SHIME) with faecal inocula of Parkinson and healthy donors; assay type: cell-based, humain; conditions: for pH (activité de fermentation): 0-48h
Source text: Pour valider l'effet bénéfique des 5 nutriments d'intérêt sur le microbiote intestinal, une étude In Vitro a été réalisée sur des microbiotes reconstitués à partir de selles d'individus sains et de patients souffrant de la maladie de Parkinson. En particulier, l'effet bénéfique de l'apport de ces nutriments a été évalué à travers l'augmentation de la production de butyrate et d'acides gras à chaine courte en général, ainsi que les changements observés au niveau des métabolites.
Trois donneurs sains et deux donneurs atteints de la maladie de Parkinson ont été recrutés. Pour évaluer les effets de chacun des nutriments sur le microbiote intestinal des donneurs susmentionnés, des simulations coliques à court terme ont été effectuées. L'évaluation de chaque nutriment a été basée 1) sur les effets sur la fermentation microbienne globale (pH) et 2) sur l'activité métabolique microbienne (production de AGCC, de lactate et d'un panel d'environ 400 métabolites).
Les approches in vitro pour étudier le tractus gastro-intestinal et les processus microbiens intestinaux offrent une excellente configuration expérimentale pour étudier les processus qui se développent dans le microbiome intestinal humain. Le dépistage des effets de composés sélectionnés sur le microbiote intestinal peut être effectué au moyen d'une fermentation fécale réalisée dans un seul réacteur, ce qui permet d'évaluer la capacité de substrats spécifiques à moduler la composition et l'activité microbiennes intestinales. Ces expériences représentent une simulation simplifiée du Simulateur continu de l'écosystème microbien intestinal humain (SHIME®).
Les matières fécales ont été recueillies auprès de cinq donneurs (deux donneurs atteints de la maladie de Parkinson (PD) et trois donneurs sains (HD)).
Les matières fécales ont été recueillies dans des conteneurs anaérobies et conservées à la température du réfrigérateur jusqu'à un traitement ultérieur. Dans les 48 heures suivant la défécation, des suspensions fécales (15 % (p/v)) ont été préparées dans un tampon phosphate et mélangées dans un rapport 1 : 1 avec un cryoprotecteur optimisé en interne dans une chambre anaérobie. Les suspensions obtenues ont été immédiatement surgelées dans de l'azote liquide puis conservées à -80°C (cryostock). Juste avant l'expérience, les échantillons ont été décongelés et immédiatement ajoutés aux réacteurs, de sorte qu'un seul cycle de congélation-décongélation a été appliqué sur chaque inoculum individuel.
Un test de dépistage à court terme consiste généralement en une incubation colique d'une dose unique d'un composé d'essai dans des conditions représentatives du gros intestin proximal, en utilisant des inoculums bactériens provenant de donneurs sélectionnés comme sources microbiennes. Cinq traitements et une condition de référence (contrôle négatif) ont été testés par donneur. La composition du milieu dans le contrôle et les traitements est exactement la même, mais le contrôle ne contient pas l'ingrédient de test. Le contrôle est inclus pour déterminer les changements de base dans les différents paramètres étudiés (pH, production d'AGCC, lactate et métabolites liés à l'intestin) résultant de la fermentation des nutriments dans le milieu nutritionnel appauvri en glucides qui est introduit avec les ingrédients d'essai dans les réacteurs (voir ci-dessous), pour fournir des nutriments essentiels à la population microbienne. Chaque condition a été testée en une seule répétition chez cinq donneurs.
Un milieu nutritionnel appauvri en glucides (contenant les nutriments basaux du côlon) a été ajouté à chaque réacteur (y compris le contrôle), ainsi que 10 % (v/v) d'un inoculum fécal cryoconservé à 7,5 % (qui a servi de source microbienne) de chaque des cinq donneurs, portant le volume total dans les réacteurs à 70 mL. Des billes porteuses de mucine ont été incluses dans chaque réacteur, pour simuler la couche de mucus du côlon. […]

[1] = healthy individuals, vs control
[2] = two Parkinson patients, vs control

SMILES | corrélation (Blautia) | corrélation (Blautia; listed as bêta-carotène) | corrélation (Clostridium_XVIII) | corrélation (Faecalibacterium) | production de butyrate (microbiote intestinal; Parkinson patients, vs control, added 10 mM butyrate taken into account) | production d'acétate (microbiote intestinal; [1]) | production de propionate (microbiote intestinal; [1]) | production de butyrate (microbiote intestinal; healthy individuals, vs control (blank)) | pH (activité de fermentation) (microbiote intestinal; [1]) | production d'acétate (microbiote intestinal; [2]) | production de propionate (microbiote intestinal; [2]) | pH (activité de fermentation) (microbiote intestinal; [2])
CC1=C(/C=C/C(C)=C/C=C/C(C)=C/C=C/C=C(C)/C=C/C=C(C)/C=C/C2=C(C)CCCC2(C)C)C(C)(C)CCC1 [Beta-Carotène, bêta-carotène] | 0,14 | corrélation positive significative au seuil de 5% | 0,11 | 0,12 | – | – | – | – | – | – | – | –
CCC=CCC=CCC=CCC=CCC=CCC=CCCC(=O)O [DHA, acide docosahexaénoïque] | – | – | 0,11 and 0,10 | – | – | – | – | – | – | – | – | –
CCCC(=O)O [butyrate de sodium] | – | – | – | – | a fortement stimulé la production de butyrate; also recorded: a stimulé la production de butyrate dans la population parkinsonienne | concentrations d'acétate similaires à celles du contrôle | concentrations de propionate similaires à celles du contrôle | n'a pas stimulé la production de butyrate; also recorded: pas dans la population en bonne santé | baisses de pH les plus légères | concentrations d'acétate similaires à celles du contrôle | légers effets de stimulation | profils de pH similaires à ceux du contrôle
